# A melting point compilation (Tetko et al.; mined from patent text by program, amines drawn as free bases though some values may be those of a salt)
row,SMILES,melting point
1,CCn1nc(C(F)(F)F)c(CS(=O)(=O)C2=NOC(C)(CCl)C2)c1F (centres undefined),73 to 75 °C
2,CC(C)(C)c1nnc(-c2nn(-c3ccc(F)cc3F)c3c2C2CCC3C2)o1 (centres undefined),108 to 110 °C
3,CCOCc1nc2c(N)nc3cc(OCc4cccc(N)c4)ccc3c2n1CC(C)C,228 to 230 °C
4,N#Cc1cc(Br)c(NC(=O)NC(=O)c2c(F)cccc2F)cc1Cl,247 °C
5,Nc1nc(N)c2cc(Sc3ccc(Cl)c(Cl)c3)ccc2n1,232 to 234 °C
6,CC1(N)CN=CC=C1N (centres undefined),163 to 165 °C
7,O=CC=C[C@@H]1O[C@H]1C#CC#CC#Cc1ccccc1 (relative stereo),91 to 92.5 °C
8,CCCN1C(=O)N2CCCN=C2c2c1ncn2C,107 to 109 °C
9,COc1cc(COc2ccc(N)nn2)c2ccccc2c1,167 to 170 °C
10,CCCC/C(=C\C(=O)O)c1cnc(CCCC)n1Cc1ccccc1Cl,131 to 132 °C
11,CCCCCNCCC1CCCC1CCCCCCC(=O)O (centres undefined),107 to 108 °C
12,CCCCCc1cc(O)c2c3c(c(=O)oc2c1)SC(C)C3 (centres undefined),188 to 190 °C
13,CC(OCc1ccc(Cl)c2ccccc12)(C(=O)O)C(F)(F)F (centres undefined),120 to 121 °C
14,OCCC1(c2ccc(Cl)c(Cl)c2)CCCNC1 (centres undefined),122 °C
15,CC(C)c1cccc(C(C)C)c1NC(=O)NCCN1CCN(CCSc2nc3ccccc3o2)CC1,152 to 153 °C
16,CN1CCN(C)C(c2ccc([N+](=O)[O-])cc2)C1=O (centres undefined),99 to 102 °C
17,COC1=CC2=CCC3C(=CCC4(C)C(=O)C(C)CC34)C2(C)CC1 (centres undefined),124 to 129 °C
18,O=C(CN1CCOCC1)N[C@@H](Cc1ccccc1)[C@@H](O)[C@H](O)[C@H](Cc1ccccc1)NC(=O)CN1CCOCC1,172 to 177 °C
19,CC(Oc1ccc2nc(NC(=O)CCCN3CCOCC3)sc2c1)c1c(Cl)ccc(F)c1Cl (centres undefined),141 to 145 °C
20,O=c1[nH]cc(C2CCCCC2)c2ccccc12,111 to 112 °C
21,O=[N+]([O-])c1ccc(Cl)c(C2OCCO2)c1,78 to 81 °C
22,CCOc1ccccc1C=C1CCc2c1oc1ccc(C(=O)O)cc1c2=O,300 to 302 °C
23,CC(=O)Nc1ncsc1C,62 to 64 °C
24,O=C1C=C/C(=C/c2ccc(C(F)(F)F)cc2)O1,92 to 94 °C

row,SMILES,melting point
1,Cc1nnc(F)c(-c2c(F)cc(F)cc2F)c1-c1ccc(Cl)cc1,114 to 115 °C
2,c1ccc(OCCSCc2ncc(-c3ccc(OCCCN4CCCCCC4)cc3)o2)cc1,32 to 35 °C
3,O=c1[nH]c(N2CCCC(CO)C2)cc2ccccc12 (centres undefined),143 to 144 °C
4,CCc1cc(C(=O)O)c(C)o1,97 to 99 °C
5,CC(=O)OCc1c(O)cccc1[N+](=O)[O-],113 to 114 °C
6,NS(=O)(=O)Oc1cc(Cl)cc(Cl)c1,146 to 147 °C
7,c1ccc(-c2ccc3nc(C4(c5ccc6nccnc6c5)N=c5ccccc5=N4)[nH]c3c2)cc1,235 °C
8,CC#CC(C)(C)NC(=O)C(Oc1cc(Cl)nc(Cl)c1)SC (centres undefined),141 to 142 °C
9,CCCCCCCC[C@H](N[C@@H](C)C(=O)N1C(=O)N(Cc2ccccc2)C[C@H]1C(=O)O)C(=O)OCC,86 to 88 °C
10,CCC(NC(=N)NC#N)c1ccccc1 (centres undefined),121 to 123 °C
11,CCCCCC(C=CC1C(O[Si](C)(C)C(C)(C)C)CC2Cc3c(cccc3OC(=O)c3ccccc3)CC21)O[Si](C)(C)C(C)(C)C (centres undefined),140 to 141 °C
12,CC1(C)Cc2sccc2C1N=CNC#N (centres undefined),118 to 119 °C
13,O=C(Cn1nc(-c2cc(Cl)ccc2O)nc1-c1cc(Cl)ccc1O)NCCN1CCOCC1,224 to 226 °C
14,O=C1C(=NO)Nc2c(Br)cccc21,> 250 °C
15,COc1ccc2c(c1)C=C(C(O)C(F)(F)F)CC2 (centres undefined),66 to 68 °C
16,COC(=O)CCNC(=O)C1CCCN1C(=O)OCc1ccccc1 (centres undefined),55 °C
17,CC(C)CC(N)S(=O)(=O)O (centres undefined),142 to 144 °C
18,CCC(=O)Oc1ccc(NC(=O)OC(C)(C)C)cc1C(=O)O,137 to 142 °C
19,CC(=O)Nc1cc2c(cc1[N+](=O)[O-])OCO2,207 to 208 °C
20,Cc1c(N2CC[C@@H](C3(NC(=O)OC(C)(C)C)CC3)C2)cc(O)c2c(=O)c(C(=O)O)cn([C@@H]3C[C@@H]3F)c12,203 to 206 °C
21,S=C(N1CCOCC1)C1(c2ccccn2)CCCS1 (centres undefined),139 °C
22,"CCOC(=O)N1CCSC1COc1ccccc1OC (single isomer, unassigned; (-))",64 to 65 °C
23,O=c1[nH]c2cc(F)ccc2n1-c1cc(Cl)ccc1O,256 to 260 °C
24,Cc1c(C#N)sc2nc(-c3ccncc3)nc(N3CCOCC3)c12,> 250 °C

# The remaining lines, values ahead:
row,melting point,SMILES
1,219 to 220 °C,O=C1NCCN1c1ccc(S(=O)(=O)Nc2ccc3c(c2)OCO3)cc1
2,145 to 146 °C,COC(=O)Oc1ccc(N=Cc2ccc(C#N)cc2)cc1
3,129 to 130 °C,CCc1ccc(C(O)COc2ccc(CC3SC(=O)NC3=O)cc2)nc1 (centres undefined)
4,260 to 262 °C,Cc1nc(NC(=O)c2ccn(-c3ccccc3)c(=O)c2)sc1C(=O)NCc1ccccc1
5,149 to 150 °C,CCC(C)C[C@@H]1O[C@H](CC(=O)Nc2ccc(OC(F)(F)C(=O)O)cc2)C(=O)N(CC(C)(C)CO)c2ccc(Cl)cc21 (some centres undefined)
6,105 to 107 °C,Cc1ccc(S(=O)(=O)NCC(C)NS(=O)(=O)c2ccc(C)cc2)cc1 (centres undefined)
7,179 to 180 °C,COc1ccc(CS(=O)(=O)c2cc3ccc(OC)cc3oc2=O)cc1
8,156 °C,CCOC(=O)c1sc(-c2ccc(C#N)cc2)nc1CBr
9,122 °C,CCCc1cnc(NC(=O)C(c2ccccc2)c2ccccc2)o1
10,270 to 273 °C,CCOC(=O)c1ccc2c(c1)C(=O)c1nc3ccccc3c(=O)n1-2
11,117 to 118 °C,CC(C(=O)OCc1ccc([N+](=O)[O-])cc1)N(C(=O)OC(C)(C)C)C1CC1 (centres undefined)
12,71.4 to 73.8 °C,COC(=O)c1cc(-c2ccc(F)c(C)c2)nn(CC(C)C)c1=O
13,166 to 168 °C,O=S(=O)(F)c1cc(S(=O)(=O)F)cc(S(=O)(=O)F)c1
14,212 to 213 °C,Cc1c(NC(=O)CC(C)(C)C)cc2c(c1C)OC(C)(C)C2(O)Cc1ccccc1 (centres undefined)
15,113 to 115 °C,O=C(/C=C/C=C(c1ccccc1)c1ccccc1)Oc1ccc([N+](=O)[O-])cc1
16,61 to 62 °C,C[C@@H]([C@@H]1CCC(=O)O1)N(Cc1ccccc1)Cc1ccccc1
17,92 °C,O=C(Cl)c1ccc(C(=O)c2ccccc2)cc1
18,237 to 239 °C,Cc1nnc2ccc(-c3cccc(NC(=O)N(C)C)c3)nn12
19,165 to 167 °C,COc1ccc(N2CCN(c3ccncc3)CC2)cc1
20,217 to 219 °C,CN(c1ccc(Cl)cc1)S(=O)(=O)c1c[nH]cn1
21,115 to 116 °C,COC(=O)Cc1ccccc1Oc1cccc(O)c1
22,240 °C,CCn1c(N)c(-c2ncc[nH]2)c(=O)c2ccc(-c3ccc(CCCC(=O)NCc4ccncc4)cc3)nc21
23,90 to 92 °C,COC(=O)c1ccc(CN2N=C(c3ccc(OC)c(OC)c3)[C@@H]3CCCC[C@@H]3C2=O)cc1 (relative stereo)
24,238 °C,COC(=O)CCCc1cc2cc(Cl)ccc2n1S(=O)(=O)c1ccc2nc(N)oc2c1
25,249 to 250 °C,CS(=O)(=O)N1CCC(Nc2ncc(C(=O)c3ccccc3)c(N)n2)CC1
26,117 to 119 °C,Cc1ccc(N2N=C3c4cc(C)sc4CCCC3CC2=O)cc1 (centres undefined)
